Results on eleven compounds are retold here after patent US10183919B2 (priority 2014, dated 2019).

Counter-ions that a name gives are not always drawn. Like-named read-outs stand apart in the source and are kept apart here. A value given as a limit tells only on which side of the number the result lay.

For series [1], the target named is T1, Human MOR (Homo sapiens, UniProt P35372).
T1 construct: expressed in transfected cells; host or cells: HEK-293T
As to the kind of experiment: cell-based. An excerpt:
(§1) Transfection. Human or mouse MOR cDNA was transfected alongside GαoB with RLuc8 inserted at position 91 (GαoB-RLuc8), Gβ1 (β1), and Gγ2 fused to the full-length mVenus at its N terminus (mVenus-γ2) into HEK-293T cells (5×10^6 cells/plate) in 10-cm dishes using PEI (Polysciences Inc.; Warrington, Pa.) in a 1:1 ratio diluted in Opti-MEM (Life Technologies Corp.; Grand Island, N.Y.) to assay for G protein activation as described previously (Rives, M.-L. et al. J. Biol. Chem. 2012, 287, 27050-4; Negri, A.; Rives, M.-L.; Caspers, M. J. et al. J. Chem. Inf. Model. 2013, 53, 521-526). Cells were maintained in the Dulbecco's Modified Eagle Medium (high glucose #11965; Life Technologies) supplemented with 10% FBS (Premium Select, Atlanta Biologicals; Atlanta, Ga.) and 100 U/mL penicillin and 100 μg/mL streptomycin (#15140, Life Technologies). After 24 hours the media was changed, and the experiment was performed 24 hours later (48 hours after transfection).
(§2) BRET. Transfected cells were dissociated and resuspended in phosphate-buffered saline (PBS). Approximately 200,000 cells/well were added to a black-framed, white well 96-well plate (#60050; Perkin Elmer; Waltham, Mass.). The microplate was centrifuged and the cells were resuspended in PBS. Then 5 μM of the luciferase substrate coelenterazine H was added to each well for 5 minutes. Following coelenterazine H addition, ligands were added and the BRET signal was measured at 5 minutes on a PHERAstar FS plate reader. Quantification of the BRET signal required calculating the ratio of the light emitted by the energy acceptor, mVenus (510-540 nm), over the light emitted by the energy donor, RLuc8 (485 nm). […] Dose response curves were fit using three-parameter logistics equation in GraphPad Prism 6.

Series [2] addresses T2, Mouse MOR (Mus musculus, UniProt P42866).
T2 construct: expressed in transfected cells; host or cells: HEK-293T
As to the kind of experiment: BRET G protein activation assay, HEK-293T cells transfected with mouse MOR. The format is cell-based.
Source text: as §1, §2
A general note: BRET reads energy transfer from a luciferase to a nearby fluorophore.

A short description of series [3]: Pharmacokinetics and brain distribution after a single intraperitoneal dose. The note with it: i.p. 10 mg/kg, male C57BL/6 mice. Here is the method: For each compound, a group of twenty four male mice were administered with a solution formulation of the drug in normal saline intraperitoneally at a dose of 10 mg/kg. Blood samples (approximately 60 μL) were collected under light isoflurane anesthesia from the retro orbital plexus at 0.08, 0.25, 0.5, 1, 2, 4, 8 and 24 hr. Plasma samples were separated by centrifugation of whole blood and stored below −70° C. until bioanalysis. Immediately after collection of blood, brain samples were collected from each mouse at 0.08, 0.25, 0.5, 1, 2, 4, 8 and 24 hr. Brain samples were homogenized using ice-cold phosphate buffer saline (pH 7.4) and homogenates were stored below −70° C. until analysis. Total homogenate volume was three times the tissue weight. All samples were processed for analysis by protein precipitation using acetonitrile (ACN) and analyzed with fit-for-purpose LC/MS/MS method (LLOQ-1.01 ng/mL in plasma and brain). Pharmacokinetic parameters were calculated using the non-compartmental analysis tool of Phoenix WinNonlin® (Version 6.3).

The mark [4] stands for this setting: BRET G protein activation, HEK-293T, mean ± SEM of independent trials, read-out: EC50 Mouse MOR.

T2 sequence (P42866 whole entry): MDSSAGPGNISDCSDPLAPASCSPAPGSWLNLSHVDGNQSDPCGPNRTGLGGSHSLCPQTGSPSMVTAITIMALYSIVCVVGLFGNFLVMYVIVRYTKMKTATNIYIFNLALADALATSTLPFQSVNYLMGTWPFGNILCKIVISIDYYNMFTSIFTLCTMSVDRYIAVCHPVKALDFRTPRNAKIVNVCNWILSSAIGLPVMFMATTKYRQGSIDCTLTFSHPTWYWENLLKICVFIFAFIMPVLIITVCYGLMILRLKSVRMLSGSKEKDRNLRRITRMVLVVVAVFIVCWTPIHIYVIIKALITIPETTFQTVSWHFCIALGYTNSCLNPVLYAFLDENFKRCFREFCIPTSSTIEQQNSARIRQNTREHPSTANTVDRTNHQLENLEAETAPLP
T1 sequence (P35372 whole entry): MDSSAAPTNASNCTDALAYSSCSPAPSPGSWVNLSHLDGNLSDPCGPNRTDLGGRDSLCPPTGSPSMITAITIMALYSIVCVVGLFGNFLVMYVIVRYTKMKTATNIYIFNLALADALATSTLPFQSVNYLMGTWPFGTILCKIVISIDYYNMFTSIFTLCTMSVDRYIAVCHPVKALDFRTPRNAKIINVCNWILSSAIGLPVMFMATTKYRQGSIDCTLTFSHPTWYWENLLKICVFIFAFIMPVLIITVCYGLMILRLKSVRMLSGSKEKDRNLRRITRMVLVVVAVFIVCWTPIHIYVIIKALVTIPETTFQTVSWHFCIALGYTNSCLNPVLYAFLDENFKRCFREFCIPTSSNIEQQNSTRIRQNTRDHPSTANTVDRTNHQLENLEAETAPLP

For orientation: EC50 means the concentration that produces a half-maximal response. On to `CCOC(=O)CCCCNC1c2ccccc2N(C)S(=O)(=O)c2cc(Cl)ccc21` (centres unmarked) [compound 17, Ethyl 5-((3-chloro-6-methyl-5,5-dioxido-6,11-dihydrodibenzo[c,f][1,2]thiazepin-11-yl)amino)pentanoate], for which the 50% effective concentration (EC50) in series [1] and in series [2] was under 10 µM each time.

Regarding `CN1c2ccccc2C(NCCCCC(=O)O)c2ccc(Cl)cc2S1(=O)=O` (centres unmarked) [compound 18, 5-((3-Chloro-6-methyl-5,5-dioxido-6,11-dihydrodibenzo[c,f][1,2]thiazepin-11-yl)amino)pentanoic acid], the EC50 in series [1] and in series [2] was under 10 µM throughout.

Regarding `CCCCCNC1c2ccccc2N(C)S(=O)(=O)c2cc(Cl)ccc21` (centres unmarked) [compound 19, 3-Chloro-6-methyl-11-(pentylamino)-6,11-dihydrodibenzo [c,f][1,2]thiazepine 5,5-dioxide], the EC50 in series [1] and in series [2] (setting [4]) was under 10 µM throughout.

For the compound `CNC1c2ccccc2N(C)S(=O)(=O)c2cc(Cl)ccc21` (centres unmarked) [compound 20, 3-Chloro-6-methyl-11-(methylamino)-6,11-dihydrodibenzo [c,f][1,2]thiazepine 5,5-dioxide], the EC50 in series [1] and in series [2] (setting [4]) was under 10 µM throughout.

Take `CCCNC1c2ccccc2N(C)S(=O)(=O)c2cc(Cl)ccc21` (centres unmarked) [compound 21, 3-Chloro-6-methyl-11-(propylamino)-6,11-dihydrodibenzo [c,f][1,2]thiazepine 5,5-dioxide]: the concentration giving a half-maximal response (EC50) in series [1] and in series [2] (setting [4]) was under 10 µM each time.

As to `CC(C)NC1c2ccccc2N(C)S(=O)(=O)c2cc(Cl)ccc21` (centres unmarked) [compound 22, 3-Chloro-11-(isopropylamino)-6-methyl-6,11-dihydrodibenzo [c,f][1,2]thiazepine 5,5-dioxide], the EC50 in series [1] and in series [2] (setting [4]) was under 10 µM each time.

Broadly, the Tmax is the time at which the peak concentration occurs. A word on the Cmax: it is the maximum level reached in the sampled fluid or tissue. With `COCCCNC1c2ccccc2N(C)S(=O)(=O)c2cc(Cl)ccc21` (centres unmarked) [compound 23, 3-Chloro-11-((3-methoxypropyl)amino)-6-methyl-6,11-dihydrodibenzo [c,f][1,2]thiazepine 5,5-dioxide], a half-maximal response in series [1] (EC50) required 0.264 ± 0.0853 µM. For the same compound, the EC50 in series [2] (setting [4]) was 1.2 ± 0.03 µM. In series [3] (brain), this compound registered an AUClast of 335.03 ng·h/g, a CL of 260.44 mL/min/kg, an MRTlast of 1.27 h and a T1/2 of 5.12 h. Further, the Tmax in series [3] (brain) is 0.08 h. In series [3] (Tables 3 and 4), the “half-life compared with tianeptine” value is “much longer half-life” and the “systemic exposure (AUC) compared with tianeptine” value is recorded as “higher systemic exposure (AUC)”. In series [3] (plasma), the AUClast was found to be 3058.80 ng·h/mL, the CL came to 44.27 mL/min/kg, the Cmax is on record as 1535.74 ng/mL and the MRTlast was found to be 2.29 h. In addition, in series [3] (plasma), the T1/2 stood at 3.93 h and the Tmax came out at 0.25 h.

For the compound `COCCCNC1c2ccccc2N(C)S(=O)(=O)c2cc(SC)ccc21` (centres unmarked) [compound 44, 11-((3-Methoxypropyl)amino)-6-methyl-3-(methylthio)-6, 11-dihydrodibenzo[c,f][1,2]thiazepine 5,5-dioxide], the EC50 in series [1] and in series [2] (setting [4]) was under 10 µM throughout.

`CCOC(=O)CCCCCCNC1c2ccccc2N(C)S(=O)(=O)c2cc(SC)ccc21` (centres unmarked) [compound 45, Ethyl 7-((6-methyl-3-(methylthio)-5,5-dioxido-6,11-dihydrodibenzeo[c,f] [1,2] 1, 2lazepin-11-yl)amino) heptanotate]: the EC50 in series [1] and in series [2] (setting [4]) was under 10 µM throughout.

As to `CN1c2ccccc2C(NCCCCCCC(=O)O)c2ccccc2S1(=O)=O` (centres unmarked) [compound 80, 7-((6-Methyl-5,5-dioxido-6,11-dihydrodibenzo[c,f][1,2]thiazepin-11-yl)amino)heptanoic acid hydrochloride salt], the EC50 in series [1] and in series [2] was under 10 µM in each case.

`CN1c2ccccc2C(NCCCCCCC(=O)O)c2ccc(Cl)cc2S1(=O)=O` (centres unmarked) [tianeptine, reference compound]: the EC50 in series [1] is 0.194 ± 0.07 µM; in series [2], 0.641 ± 0.12 µM.
